For data set [1], the system named is Caco-2 cell monolayers. Nature of the data set: Transport of semaglutide across Caco-2 cell monolayers in the presence of fatty acid acylated amino acids. As to conditions: for Papp: permeation of semaglutide (100 μM), apical to basolateral, with 0.5 mM fatty acid acylated amino acid, pH 7.4; for permeation enhancing effect: on semaglutide across Caco-2 monolayers, compared among the fatty acid acylated amino acids tested. It is filed as in vitro ADME. Here is the method: (§1) Caco-2 cells were obtained from the American Type Culture Collection (Manassas, Va.). Cells were seeded in culturing flasks and passaged in Dulbecco's Modified Eagle′ medium supplemented with 10% fetal bovine serum, 1% penicillin/streptomycin (100 U/ml and 100 μg/ml, respectively), 1% L-glutamine and 1% nonessential amino acids. Caco-2 cells were seeded onto tissue culture treated polycarbonate filters in 12-well Transwell® plates (1.13 cm2, 0.4 μm pore size) at a density of 10^5 cells/well. Monolayers were grown in an atmosphere of 5% CO2-95% O2 at 37° C. Growth media were replaced every other day. The experiment was performed on day 10-14 after seeding of Caco-2 cells.
(§2) The amount of compound transported from the donor chamber (apical side) to the receiver chamber (basolateral side) was measured. The transport study was initiated by adding 400 μl solution (100 μM of semaglutide+0.5 mM fatty acid acylated amino acids) and 0.4 μCi/μl [3H]manntiol in transport buffer to the donor chamber and 1000 μl transport buffer to the receiver chamber. The transport buffer consisted of Hank's balanced saline solution containing 10 mM HEPES, […] to pH 7.4 after addition of compounds. The transport of [^3H]mannitol, a marker for paracellular transport, was measured to verify the integrity of the epithelium.
(§3) Before the experiment, the Caco-2 cells were equilibrated for 60 min with transport buffer on both sides of the epithelium. Buffer was then removed and the experiment initiated. Donor samples (20 μl) were taken at 0 min and at the end of the experiment. Receiver samples (200 μl) were taken every 15 min. The study was performed in an atmosphere of 5% CO2-95% O2 at 37° C. on a shaking plate (30 rpm).
(§4) In all samples with semaglutide and mannitol, the concentration was determined using a LOCI assay and scintillation counter, respectively.
(§5) Before and during the experiment the transepithelial electrical resistance (TEER) of the cell monolayers was monitored. In selected experiments, the transport buffer were changed to culturing medium after end of experiment and the TEER measured 24 h after experiment. The TEER was measured with EVOM™ Epithelial Voltohmmeter connected to Chopsticks.

Test in data set [2]: as above
It is filed as in vitro ADME. Conditions: human, Caco-2; permeation of semaglutide (100 μM), apical to basolateral, permeation enhancer: None, pH 7.4. Here is the method:
as §1, §2, §3, §4, §5

The structures appear in SMILES notation.

Turning to `CCCCCCCCCC(=O)N[C@@H](CC(N)=O)C(=O)[O-].[Na+]` [Sodium N-decanoyl L-asparaginate], the Papp in data set [1] is given as 0.31 10^−8 cm/s. Regarding `CCCCCCCCCC(=O)N[C@@H](CC(C)C)C(=O)[O-].[Na+]` [Sodium N-decanoyl L-leucinate], in data set [1], the Papp was 2.12 10^−8 cm/s. As for `CCCCCCCCCCCC(=O)N[C@@H](CC(C)C)C(=O)[O-].[Na+]` [Sodium N-dodecanoyl L-leucinate], the Papp in data set [1] is 2.53 10^−8 cm/s. As to `CCCCCCCCCCCC(=O)N[C@@H](Cc1ccccc1)C(=O)[O-].[Na+]` [Sodium N-dodecanoyl L-phenylalaninate], the Papp in data set [1] is 5.60 10^−8 cm/s. On to `CCCCCCCCCCCCCC(=O)N[C@@H](CC(C)C)C(=O)[O-].[Na+]` [Sodium N-myristoyl L-leucinate], for which, in data set [1], the permeation enhancing effect result is recorded as “greatest effect” and the Papp is 63.88 10^−8 cm/s. For the compound `CCCCCCCCCCCCCC(=O)N[C@H](C(=O)[O-])C(C)C.[Na+]` [Sodium N-myristoyl L-valinate], in data set [1], the permeation enhancing effect result is recorded as “greatest effect” and the Papp is recorded as 78.83 10^−8 cm/s. On to `CC[C@H](C)[C@H](NC(=O)[C@H](Cc1ccccc1)NC(=O)[C@H](CCC(=O)O)NC(=O)[C@H](CCCCNC(=O)COCCOCCNC(=O)COCCOCCNC(=O)CC[C@H](NC(=O)CCCCCCCCCCCCCCCCC(=O)O)C(=O)O)NC(=O)[C@H](C)NC(=O)[C@H](C)NC(=O)[C@H](CCC(N)=O)NC(=O)CNC(=O)[C@H](CCC(=O)O)NC(=O)[C@H](CC(C)C)NC(=O)[C@H](Cc1ccc(O)cc1)NC(=O)[C@H](CO)NC(=O)[C@H](CO)NC(=O)[C@@H](NC(=O)[C@H](CC(=O)O)NC(=O)[C@H](CO)NC(=O)[C@@H](NC(=O)[C@H](Cc1ccccc1)NC(=O)[C@@H](NC(=O)CNC(=O)[C@H](CCC(=O)O)NC(=O)C(C)(C)NC(=O)[C@@H](N)Cc1cnc[nH]1)[C@@H](C)O)[C@@H](C)O)C(C)C)C(=O)N[C@@H](C)C(=O)N[C@@H](Cc1c[nH]c2ccccc12)C(=O)N[C@@H](CC(C)C)C(=O)N[C@H](C(=O)N[C@@H](CCCNC(=N)N)C(=O)NCC(=O)N[C@@H](CCCNC(=N)N)C(=O)NCC(=O)O)C(C)C` [semaglutide, N-epsilon26-[2-(2-{2-[2-(2-{2-[(S)-4-carboxy-4-(17-carboxyheptadecanoylamino)butyrylamino]ethoxy}ethoxy)acetylamino]ethoxy}ethoxy)acetyl][Aib8,Arg34]GLP-1(7-37), reference compound], for which, in data set [2], the Papp A→B at 100 μM turned out to be 0.0065 ×10⁻⁶ cm/s.
